# Reference: US6761898B1, “Combination composition in the form of nutritional supplement or pharmaceutical composition for the prevention and therapeutical treatment of degenerative or inflammatory articular disorders” (Sigma-Tau Industrie Farmaceutiche Riunite S.p.A., priority 1998, dated 2004)
# Key:
# [1] = system: Type II collagen arthritis in mice; assay: Type II collagen arthritis tests; format: in vivo; conditions: injected from day one after collagen injection to end of sixth week, L-carnitine 50 and 100 mg/kg, glucosamine 100 and 200 mg/kg, chondroitin sulphate 50 and 100 mg/kg
# Description: Type II collagen arthritis was induced in mice according to the technique described by Trentham (Trentham D. R., Townes A. S., Kang A. H., J. Exp. Med., 146, 857, 1977). One group of mice was immunised by means of intradermal injections of natural collagen emulsified in complete Freund's adjuvant (Difco Labs., Detroit, U.S.A.) at the base of the tail. Three weeks later these animals were re-injected intraperitoneally with the same dose of emulsified collagen. L-carnitine (50 mg/kg and 100 mg/kg), glucosamine (100 mg/kg and 200 mg/kg) and chondroitin sulphate (50 mg/kg and 100 mg/kg) were injected alone or in combination from day one after the collagen injection up to the end of the sixth week. One group of animals (control) received no treatment. The assessment of the severity of the oedema was done according to its intensity with scores ranging from 1 to 4. […] When L-carnitine was combined with either glucosamine or with chondroitin sulphate an approximately 50% reduction of arthrosis was obtained.
# [2] = system: carragenin-induced oedema in the rat; assay: Carragenin oedema tests; format: in vivo; conditions: for effect on severity of the carragenin-induced oedema: substance alone, 50, 100 and 200 mg/kg one hour prior to carragenin
# Description: Carragenin oedema was induced in the rat by injection of 0.1 ml of a 1% carragenin solution (Sigma Chemical) in the subplantar region of the rat's right paw. The volume of the paw was measured by means of a mercury plethysmograph one hour later and over the 5-hour period following carragenin injection.
# L-carnitine, glucosamine and chondroitin sulphate were administered one hour prior to carragenin injection, both alone and in combination at doses of 50, 100 and 200 mg/kg of these compounds.
# [3] = dose 100 mg/kg (each substance), 2 hours
# [4] = dose 100 mg/kg (each substance), 3 hours
# [5] = dose 100 mg/kg (each substance), 4 hours
# [6] = dose 200 mg/kg (each substance), 1 hour
# [7] = dose 200 mg/kg (each substance), 2 hours
# [8] = dose 200 mg/kg (each substance), 3 hours
# [9] = dose 200 mg/kg (each substance), 4 hours
Compound,inhibitory effect on the development of the typical signs of arthritis [1],"% Reduction of oedema at various hours after carragenin injection ([2]; dose 100 mg/kg (each substance), 1 hour)","% Reduction of oedema at various hours after carragenin injection [2, 3]","% Reduction of oedema at various hours after carragenin injection [2, 4]","% Reduction of oedema at various hours after carragenin injection [2, 5]","% Reduction of oedema at various hours after carragenin injection [2, 6]","% Reduction of oedema at various hours after carragenin injection [2, 7]","% Reduction of oedema at various hours after carragenin injection [2, 8]","% Reduction of oedema at various hours after carragenin injection [2, 9]",effect on severity of the carragenin-induced oedema [2]
chondroitin sulphate,"neither L-carnitine, glucosamine nor chondroitin sulphate when administered alone had any inhibitory effect",10 ± 0.3%,10 ± 0.8%,5 ± 0.4%,5 ± 0.1%,10 ± 1.9%,15 ± 1.1%,20 ± 1.8%,10 ± 1.2%,failed to modify the severity
"N[C@H]1C(O)O[C@H](CO)[C@@H](O)[C@@H]1O (some centres unmarked) [Glucosamine, glucosamine]","neither L-carnitine, glucosamine nor chondroitin sulphate when administered alone had any inhibitory effect",,5 ± 0.3%,5 ± 0.5%,5 ± 0.6%,5 ± 0.2%,10 ± 0.9%,10 ± 1.1%,5 ± 0.5%,failed to modify the severity
C[N+](C)(C)C[C@H](O)CC(=O)[O-] [L-carnitine],"neither L-carnitine, glucosamine nor chondroitin sulphate when administered alone had any inhibitory effect",,,,,,10 ± 0.2%,5 ± 0.3%,,failed to modify the severity
